Experimental data: patent US8541410B2, “Sulfur substituted sulfonylaminocarboxylic acid N-arylamides, their preparation, their use and pharmaceutical preparations comprising them” (Sanofi-aventis Deutschland GmbH, priority 1998, dated 2013)

Target: T1, soluble guanylate cyclase (sGC) (Bos taurus, UniProt P16068)
T1 construct: The sGC which was employed had been isolated from bovine lung; from tissue; host or cells: bovine lung
T1 sequence (P16068 1-619): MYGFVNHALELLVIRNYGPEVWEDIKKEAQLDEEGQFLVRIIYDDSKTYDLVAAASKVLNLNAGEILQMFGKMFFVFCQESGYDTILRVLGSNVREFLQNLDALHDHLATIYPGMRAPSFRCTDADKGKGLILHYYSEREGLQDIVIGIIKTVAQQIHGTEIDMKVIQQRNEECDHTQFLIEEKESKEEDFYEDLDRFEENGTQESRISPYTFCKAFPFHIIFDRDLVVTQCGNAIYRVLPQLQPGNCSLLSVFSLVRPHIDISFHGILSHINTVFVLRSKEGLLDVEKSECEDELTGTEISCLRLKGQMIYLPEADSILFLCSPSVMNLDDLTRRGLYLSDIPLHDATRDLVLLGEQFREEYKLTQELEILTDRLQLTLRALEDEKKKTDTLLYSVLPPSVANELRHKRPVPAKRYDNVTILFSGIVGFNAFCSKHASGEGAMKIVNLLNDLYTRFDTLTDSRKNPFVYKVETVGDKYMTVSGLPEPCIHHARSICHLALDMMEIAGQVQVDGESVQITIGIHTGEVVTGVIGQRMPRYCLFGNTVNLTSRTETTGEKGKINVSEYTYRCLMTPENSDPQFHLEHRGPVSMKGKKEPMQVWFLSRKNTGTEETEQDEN
T1 sequence (P19687 1-691 partner): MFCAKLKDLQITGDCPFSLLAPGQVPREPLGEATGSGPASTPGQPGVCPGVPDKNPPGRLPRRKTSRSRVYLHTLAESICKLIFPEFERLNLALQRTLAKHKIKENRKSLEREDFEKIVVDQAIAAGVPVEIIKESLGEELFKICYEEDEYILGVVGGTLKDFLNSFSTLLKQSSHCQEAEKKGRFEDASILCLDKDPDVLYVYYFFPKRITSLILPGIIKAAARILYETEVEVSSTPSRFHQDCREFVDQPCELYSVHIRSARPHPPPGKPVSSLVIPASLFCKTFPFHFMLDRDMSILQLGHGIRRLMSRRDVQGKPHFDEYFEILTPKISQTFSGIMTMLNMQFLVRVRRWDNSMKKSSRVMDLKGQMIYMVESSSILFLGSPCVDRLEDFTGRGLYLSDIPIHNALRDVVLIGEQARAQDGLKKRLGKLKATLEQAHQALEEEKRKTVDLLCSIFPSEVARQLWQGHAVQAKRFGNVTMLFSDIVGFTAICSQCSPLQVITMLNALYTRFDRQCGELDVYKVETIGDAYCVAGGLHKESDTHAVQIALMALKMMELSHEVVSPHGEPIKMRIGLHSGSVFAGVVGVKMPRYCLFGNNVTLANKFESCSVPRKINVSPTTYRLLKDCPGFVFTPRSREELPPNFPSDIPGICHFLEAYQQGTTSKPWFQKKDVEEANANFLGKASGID
Experiment: Activation of the soluble guanylate cyclase (cGMP enzyme immunoassay)
Assay type: biochemical, bovine
Details: concentration c 50 μM; n-fold stimulation of basal enzyme activity
Description: The activation of the soluble guanylate cyclase (sGC) which catalyzes the conversion of guanosine triphosphate (GTP) into cyclic guanosine monophosphate (cGMP) and pyrophosphate, by the compounds according to the invention was quantified with the aid of an enzyme immunoassay (EIA) from Amersham. For this purpose the substances to be tested were initially incubated with sGC in microtiter plates, and the amount of the cGMP formed was then determined.
The sGC which was employed had been isolated from bovine lung (see Methods in Enzymology, Volume 195, p. 377). The test solutions (100 μl per well) contained 50 mM triethanolamine (TEA) buffer (pH 7.5), 3 mM MgCl2, 3 mM reduced glutathione (GSH), 0.1 mM GTP, 1 mM 3-isobutyl-1-methylxanthine (IBMX), suitably diluted enzyme solution and the substance to be tested or, in the control experiments, the solvent. The substances to be tested were dissolved in dimethyl sulfoxide (DMSO) and the solution was diluted with DMSO/water, so that the final concentration (c) of the substance to be tested in the test solution had the value indicated in the table. The DMSO concentration in the test solution was 5% (v/v). The reaction was initiated by addition of the sGC. The reaction mixture was incubated at 37° C. for 15 to 20 minutes and then stopped by ice-cooling and addition of the stop reagent (50 mM EDTA, pH 8.0). An aliquot of 50 μl was taken and used for determining the cGMP content using the acetylation protocol of the Amersham cGMP-EIA kit. The absorption of the samples was measured at 450 nm (reference wavelength 620 nm) in a microtiter plate reader. The cGMP concentration was determined using a standard curve which was obtained under the same test conditions. The activation of sGC by a test substance is given as the n-fold stimulation of the basal enzyme activity which was found in the control experiments (using solvent instead of test substance) (calculated using the formula n-fold stimulation=[cGMP]test substance/[cGMP]control).

n-fold stimulation	Compound
14.7	CSc1ccc(NC(=O)c2cc(Cl)ccc2NS(=O)(=O)c2ccc(Cl)cc2)cc1 [Example 23, 5-Chloro-2-(4-chloro-phenylsulfonylamino)-N-(4-methylmercapto-phenyl)-benzamide]
33.9	O=C(Nc1ccc(S(=O)(=O)N2CCSCC2)cc1)c1cc(Cl)ccc1NS(=O)(=O)c1ccc(Cl)cc1 [Example 63, 5-Chloro-2-(4-chloro-phenylsulfonylamino)-N-(4-(thiomorpholine-4-sulfonyl)-phenyl)-benzamide]
23.9	CN1CCN(S(=O)(=O)c2ccc(NC(=O)c3cc(Cl)ccc3NS(=O)(=O)c3ccc(Cl)cc3)cc2)CC1 [Example 64, 5-Chloro-2-(4-chloro-phenylsulfonylamino)-N-(4-(4-methyl-piperazine-1-sulfonyl)-phenyl)-benzamide]
24.6	CC1CN(S(=O)(=O)c2ccc(NC(=O)c3cc(Cl)ccc3NS(=O)(=O)c3ccc(Cl)cc3)cc2)CC(C)O1 (stereo not shown) [Example 65, 5-Chloro-2-(4-chloro-phenylsulfonylamino)-N-(4-(2,6-dimethyl-morpholine-4-sulfonyl)-phenyl)-benzamide]
33	C[C@@H]1CN(S(=O)(=O)c2ccc(NC(=O)c3cc(Cl)ccc3NS(=O)(=O)c3ccc(Cl)cc3)cc2)C[C@H](C)O1 [Example 66, 5-Chloro-2-(4-chloro-phenylsulfonylamino)-N-(4-(cis-2,6-dimethyl-morpholine-4-sulfonyl)-phenyl)-benzamide]
29.6	O=C(Nc1ccc(S(=O)(=O)N2CCC(O)CC2)cc1)c1cc(Cl)ccc1NS(=O)(=O)c1ccc(Cl)cc1 [Example 67, 5-Chloro-2-(4-chloro-phenylsulfonylamino)-N-(4-(4-hydroxy-piperidine-1-sulfonyl)-phenyl)-benzamide]
12.1	O=C(Nc1ccc(S(=O)(=O)N2CCC3(CC2)OCCO3)cc1)c1cc(Cl)ccc1NS(=O)(=O)c1ccc(Cl)cc1 [Example 68, 5-Chloro-2-(4-chloro-phenylsulfonylamino)-N-(4-(1,4-dioxa-8-aza-spiro[4.5]decane-8-sulfonyl)-phenyl)-benzamide]
28.3	O=C(Nc1ccc(S(=O)(=O)N2CCOCC2)cc1)c1cc(Cl)ccc1NS(=O)(=O)c1ccc(Cl)c(Cl)c1 [Example 69, 5-Chloro-2-(3,4-dichloro-phenylsulfonylamino)-N-(4-(morpholine-4-sulfonyl)-phenyl)-benzamide]
25.1	O=C(Nc1ccc(S(=O)(=O)N2CCSCC2)cc1)c1cc(Cl)ccc1NS(=O)(=O)c1ccc(Cl)c(Cl)c1 [Example 70, 5-Chloro-2-(3,4-dichloro-phenylsulfonylamino)-N-(4-(thiomorpholine-4-sulfonyl)-phenyl)-benzamide]
13.4	CN1CCN(S(=O)(=O)c2ccc(NC(=O)c3cc(Cl)ccc3NS(=O)(=O)c3ccc(Cl)c(Cl)c3)cc2)CC1 [Example 71, 5-Chloro-2-(3,4-dichloro-phenylsulfonylamino)-N-(4-(b4-methyl-piperazine-1-sulfonyl)-phenyl)-benzamide]
27	COc1cc(NS(=O)(=O)c2ccc(Cl)cc2)c(C(=O)Nc2ccc(S(=O)(=O)N3CCOCC3)cc2)cc1OC [Example 72, 2-(4-Chloro-phenylsulfonylamino)-4,5-dimethoxy-N-(4-(morpholine-4-sulfonyl)-phenyl)-benzamide]
16.5	O=C(Nc1ccc(S(=O)(=O)N2CCN(CCO)CC2)cc1)c1cc(Cl)ccc1NS(=O)(=O)c1ccc(Cl)cc1 [Example 73, 5-Chloro-2-(4-chloro-phenylsulfonylamino)-N-(4-(4-(2-hydroxy-ethyl)-piperazine-1-sulfonyl)-phenyl)-benzamide]
5.1	CCN(CC)S(=O)(=O)c1ccc(NC(=O)c2cc(Cl)ccc2NS(=O)(=O)c2ccc(Cl)cc2)cc1 [Example 75, 5-Chloro-2-(4-chloro-phenylsulfonylamino)-N-(4-diethylsulfamoyl-phenyl)-benzamide]
10.6	O=C(Nc1ccc(S(=O)(=O)N2CCCCC2)cc1)c1cc(Cl)ccc1NS(=O)(=O)c1ccc(Cl)cc1 [Example 76, 5-Chloro-2-(4-chloro-phenylsulfonylamino)-N-(4-(piperidine-1-sulfonyl)-phenyl)-benzamide]
5.9	COCCNS(=O)(=O)c1ccc(NC(=O)c2cc(Cl)ccc2NS(=O)(=O)c2ccc(Cl)cc2)cc1 [Example 77, 5-Chloro-2-(4-chloro-phenylsulfonylamino)-N-(4-(2-methoxy-ethylsulfamoyl)-phenyl)-benzamide]
15.4	O=C(Nc1ccc(S(=O)(=O)N2CCOCC2)cc1)c1sccc1NS(=O)(=O)c1ccc(Cl)cc1 [Example 79, 3-(4-Chloro-phenylsulfonylamino)-N-(4-(morpholine-4-sulfonyl)-phenyl)-thiophene-2-carboxamide]
23.7	O=C(Nc1ccc(S(=O)(=O)N2CCSCC2)cc1)c1sccc1NS(=O)(=O)c1ccc(Cl)cc1 [Example 84, 3-(4-Chloro-phenylsulfonylamino)-N-(4-(thiomorpholine-4-sulfonyl)-phenyl)-thiophene-2-carboxamide]
12.5	COc1cc(NS(=O)(=O)c2ccc(Cl)cc2)c(C(=O)Nc2ccc(S(=O)(=O)N3CCN(C)CC3)cc2)cc1OC [Example 87, 2-(4-Chloro-phenylsulfonylamino)-4,5-dimethoxy-N-(4-(4-methyl-piperazine-1-sulfonyl)-phenyl)-benzamide]
11.6	COc1cc(NS(=O)(=O)c2ccc(Cl)cc2)c(C(=O)Nc2ccc(S(=O)(=O)N3CCC(O)CC3)cc2)cc1OC [Example 89, 2-(4-Chloro-phenylsulfonylamino)-N-(4-(4-hydroxy-piperidine-1-sulfonyl)-phenyl)-4,5-dimethoxy-benzamide]
31.2	Cc1nn(C)c(Cl)c1S(=O)(=O)Nc1ccc(Cl)cc1C(=O)Nc1ccc(S(=O)(=O)N2CCSCC2)cc1 [Example 124, 5-Chloro-2-(5-chloro-1,3-dimethyl-1H-pyrazole-4-sulfonyl-amino)-N-(4-(thiomorpholine-4-sulfonyl)-phenyl)-benzamide]
35.3	Cc1nn(C)c(Cl)c1S(=O)(=O)Nc1ccc(Cl)cc1C(=O)Nc1ccc(S(=O)(=O)N2CCOCC2)cc1 [Example 130, 5-Chloro-2-(5-chloro-1,3-dimethyl-pyrazole-4-sulfonyl-amino)-N-(4-(morpholine-4-sulfonyl)-phenyl)-benzamide]

Compound	n-fold stimulation
Cc1ccc(NS(=O)(=O)c2ccc(Cl)cc2)c(C(=O)Nc2ccc(S(=O)(=O)N3CCSCC3)cc2)c1 [Example 86, 2-(4-Chloro-phenylsulionylamino)-5-methyl-N-(4-(thiomorpholine-4-sulfonyl)-phenyl)-benzamide]	32.9
